The values that follow come from PubChem BioAssay (NCI).

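Values below derive from 48-hour exposures of cells grown in 96-well plates, with endpoints linearly interpolated between the two concentrations bracketing the appropriate inhibition level. GI50: concentration for 50% inhibition of growth. Definition used: TGI = concentration required for complete inhibition of growth.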

Among the test systems are SW-620 colon; HOP-92 NSCLC; NCI-H23 lung; SK-MEL-28 melanoma; EKVX NSCLC; MCF7 breast; M14 melanoma; SF-295 CNS; MDA-MB-231 breast; HL-60(TB) leukemia.
What all share (assay): NCI anticancer screen, dose series, 48 h

`c1ccc(-c2cc(C3CO3)c3ccccc3n2)cc1` (configuration not stated): the TGI in the assay with SW-620 colon is 71.3 µM; with HOP-92 NSCLC it was 39.2 µM; in the assay on NCI-H23 lung, 37.5 µM; in the assay with SK-MEL-28 melanoma it was above 100 µM; in the assay on EKVX NSCLC it was 34.1 µM; with MCF7 breast, 47.8 µM. Besides, the TGI is 34.2 µM in the assay with M14 melanoma, above 100 µM in the assay on SF-295 CNS, 51.7 µM in the assay on MDA-MB-231 breast and 63.7 µM in the assay on HL-60(TB) leukemia.

For `C/C(=C\C1=C(Cl)C(=O)c2ccccc2C1=O)C(=O)O`, the GI50 in the assay on SW-620 colon is 21.7 µM; in the assay with HOP-92 NSCLC, 18.6 µM; in the assay on NCI-H23 lung, 21.5 µM; in the assay on SK-MEL-28 melanoma, 20.2 µM; with EKVX NSCLC, 18.6 µM; with MCF7 breast, 17.6 µM. For the same molecule, the GI50 is 17.7 µM with M14 melanoma, 19 µM in the assay with SF-295 CNS, 18.6 µM in the assay on MDA-MB-231 breast and 25.4 µM in the assay on HL-60(TB) leukemia. Besides, the TGI in the assay on SW-620 colon was 37.4 µM; in the assay on HOP-92 NSCLC, 33 µM; in the assay with NCI-H23 lung it was 45.7 µM; with SK-MEL-28 melanoma, 34.6 µM; in the assay on EKVX NSCLC, 37.2 µM; with MCF7 breast it was 43.3 µM. Moreover, the TGI in the assay with M14 melanoma was determined as 31.7 µM; in the assay with SF-295 CNS it was 33.4 µM; in the assay with MDA-MB-231 breast, 33.8 µM; in the assay on HL-60(TB) leukemia, 63.5 µM.

Consider `CC(C)(C)c1[nH]cnc1/C=c1\[nH]c(=O)/c(=C/c2ccccc2)[nH]c1=O`, for which the GI50 with SW-620 colon was below 0.01 µM; in the assay with HOP-92 NSCLC it was below 0.0118 µM; in the assay on NCI-H23 lung it was 0.03 µM; in the assay with SK-MEL-28 melanoma, 10.5 µM; in the assay with EKVX NSCLC, 0.0482 µM; with MCF7 breast, 0.0203 µM. The GI50 in the assay with M14 melanoma is below 0.01 µM; in the assay with SF-295 CNS it was below 0.01 µM; in the assay with MDA-MB-231 breast, 0.023 µM; with HL-60(TB) leukemia it was below 0.01 µM. Besides, the TGI was 50.7 µM in the assay with SW-620 colon; 9.11 µM with HOP-92 NSCLC; 35.2 µM in the assay on NCI-H23 lung; 28.3 µM in the assay with SK-MEL-28 melanoma; 35.5 µM in the assay with EKVX NSCLC; 17 µM in the assay with MCF7 breast. In addition, the TGI with M14 melanoma is 17.1 µM; in the assay with SF-295 CNS, 20.5 µM; with MDA-MB-231 breast it was 30.9 µM; with HL-60(TB) leukemia, 11.1 µM.

`COC(=O)c1ccc(NC(=O)Nc2ccc3oc(=O)c4ccccc4c3c2)cc1`: the GI50 is 30.9 µM with SW-620 colon; 28.5 µM in the assay with HOP-92 NSCLC; 71.4 µM in the assay on NCI-H23 lung; 76 µM in the assay on SK-MEL-28 melanoma; above 100 µM with EKVX NSCLC; 35.2 µM in the assay on MCF7 breast. In addition, the GI50 in the assay on M14 melanoma was 31.8 µM; with SF-295 CNS, 55.9 µM; in the assay on MDA-MB-231 breast it was 23.7 µM; in the assay on HL-60(TB) leukemia, 0.714 µM. The TGI was 98.3 µM in the assay on SW-620 colon; 80.9 µM in the assay on HOP-92 NSCLC; above 100 µM in the assay with NCI-H23 lung; above 100 µM in the assay on SK-MEL-28 melanoma; above 100 µM with EKVX NSCLC; above 100 µM in the assay on MCF7 breast. Moreover, the TGI was above 100 µM with M14 melanoma, above 100 µM with SF-295 CNS, 55.9 µM in the assay with MDA-MB-231 breast and 14 µM in the assay with HL-60(TB) leukemia.

With `O=c1c2ccccc2n2n1CC(O)C2` (configuration not stated), the TGI in the assay on SW-620 colon, in the assay on HOP-92 NSCLC, in the assay on NCI-H23 lung, with SK-MEL-28 melanoma, in the assay on EKVX NSCLC and in the assay on MCF7 breast was above 100 µM throughout. The TGI in the assay with M14 melanoma, in the assay with SF-295 CNS, in the assay with MDA-MB-231 breast and with HL-60(TB) leukemia was above 100 µM throughout. For the same molecule, the GI50 in the assay on MCF7 breast and with MDA-MB-231 breast was above 100 µM throughout.

Take `CCN1C(NN)=NS(=O)(=O)c2ccccc21`: the TGI in the assay with SW-620 colon, in the assay with HOP-92 NSCLC, in the assay with NCI-H23 lung, with SK-MEL-28 melanoma, in the assay with EKVX NSCLC and in the assay on MCF7 breast was above 100 µM each time. For the same molecule, the TGI in the assay on M14 melanoma, in the assay with SF-295 CNS, in the assay on MDA-MB-231 breast and in the assay with HL-60(TB) leukemia was above 100 µM throughout.

As to `O=C(Nc1ccc(Oc2ccc3nc(NC(=O)c4ccccc4)[nH]c3c2)cc1)Nc1cc(C(F)(F)F)ccc1F`, the GI50 in the assay with SW-620 colon is 1.27 µM; in the assay on HOP-92 NSCLC it was 0.887 µM; in the assay with NCI-H23 lung it was 0.93 µM; with SK-MEL-28 melanoma it was 1.61 µM; with EKVX NSCLC, 0.969 µM; with MCF7 breast, 0.758 µM. Also, the GI50 in the assay on M14 melanoma was 0.997 µM; in the assay on SF-295 CNS it was 0.71 µM; in the assay on MDA-MB-231 breast it was 2.05 µM; in the assay with HL-60(TB) leukemia, 0.738 µM. Besides, the TGI in the assay with SW-620 colon is above 25 µM; with HOP-92 NSCLC, 8.81 µM; in the assay with NCI-H23 lung it was 13 µM; with SK-MEL-28 melanoma, 12.9 µM; in the assay on EKVX NSCLC it was above 25 µM; with MCF7 breast it was 5.14 µM. Further, the TGI with M14 melanoma was 9.29 µM; with SF-295 CNS it was 4.49 µM; in the assay on MDA-MB-231 breast, above 22.9 µM; with HL-60(TB) leukemia, 3.29 µM.

As for `Oc1c(CN2CCCC2)cc(COCc2ccc(Br)cc2)c2cccnc12`, the GI50 is 0.574 µM with SW-620 colon; 1.93 µM in the assay on HOP-92 NSCLC; 0.969 µM in the assay with NCI-H23 lung; 1.16 µM in the assay on SK-MEL-28 melanoma; 0.723 µM with EKVX NSCLC; 0.316 µM in the assay with MCF7 breast. Moreover, the GI50 with M14 melanoma is 0.36 µM; with SF-295 CNS, 1.19 µM; with MDA-MB-231 breast, 0.851 µM; in the assay with HL-60(TB) leukemia, 0.355 µM. Also, the TGI worked out at 7.21 µM in the assay on SW-620 colon; 7.56 µM in the assay with HOP-92 NSCLC; 3.33 µM in the assay on NCI-H23 lung; 6.31 µM with SK-MEL-28 melanoma; 11.8 µM in the assay on EKVX NSCLC; 1.37 µM with MCF7 breast. The TGI in the assay on M14 melanoma was found to be 1.77 µM; with SF-295 CNS, 3.98 µM; in the assay on MDA-MB-231 breast it was 2.37 µM; with HL-60(TB) leukemia it was 1.43 µM.

As to `O=S(=O)(O)c1ccc(-c2nnc(-c3ccccn3)nc2-c2ccc(S(=O)(=O)O)o2)o1`, the TGI in the assay with SW-620 colon, in the assay with HOP-92 NSCLC, in the assay on NCI-H23 lung, in the assay on SK-MEL-28 melanoma, in the assay on EKVX NSCLC and in the assay with MCF7 breast was above 100 µM throughout. The TGI in the assay with M14 melanoma, in the assay with SF-295 CNS, in the assay on MDA-MB-231 breast and in the assay on HL-60(TB) leukemia was above 100 µM in each case.

As to `Cc1cc(C2=NNC(=O)Cc3cc4c(cc32)OCCO4)cc(C)c1N`, the GI50 in the assay with SW-620 colon is 0.965 µM; in the assay on HOP-92 NSCLC, 3.54 µM; with NCI-H23 lung, 2.89 µM; in the assay with SK-MEL-28 melanoma, 5.37 µM; with EKVX NSCLC, 29.7 µM; with MCF7 breast, 1.13 µM. Further, the GI50 in the assay with M14 melanoma was 2.17 µM; in the assay with SF-295 CNS, 0.47 µM; in the assay with MDA-MB-231 breast, 6.25 µM; in the assay on HL-60(TB) leukemia, 1.59 µM. Besides, the TGI with SW-620 colon, with HOP-92 NSCLC, in the assay with NCI-H23 lung, in the assay with SK-MEL-28 melanoma, in the assay with EKVX NSCLC and in the assay on MCF7 breast was above 100 µM in each case. Besides, the TGI is above 100 µM in the assay with M14 melanoma, 2.87 µM in the assay with SF-295 CNS, above 100 µM with MDA-MB-231 breast and 54.5 µM in the assay with HL-60(TB) leukemia.

As for `CN(C)c1ncnc2c1nnn2C1OC(CO)C(O)C1O` (configuration not stated), the GI50 is 0.293 µM in the assay on SW-620 colon; 0.186 µM with HOP-92 NSCLC; 0.399 µM in the assay with NCI-H23 lung; 0.404 µM in the assay on SK-MEL-28 melanoma; 2.33 µM in the assay on EKVX NSCLC; 0.216 µM in the assay with MCF7 breast. Moreover, the GI50 in the assay on M14 melanoma is 0.0515 µM; in the assay with SF-295 CNS, 0.221 µM; in the assay with MDA-MB-231 breast, 0.524 µM; in the assay on HL-60(TB) leukemia, 0.239 µM. Also, the TGI in the assay on SW-620 colon is above 100 µM; in the assay on HOP-92 NSCLC, 1.23 µM; with NCI-H23 lung, above 63.2 µM; with SK-MEL-28 melanoma it was above 85.2 µM; in the assay on EKVX NSCLC it was above 100 µM; in the assay on MCF7 breast, above 23.4 µM. Further, the TGI in the assay on M14 melanoma is 1.14 µM; in the assay with SF-295 CNS it was above 58.3 µM; with MDA-MB-231 breast, above 100 µM; in the assay on HL-60(TB) leukemia it was above 100 µM.

For `CN(C)c1ccc(/C=C(\C#N)c2nc3ccccc3n2C)cc1`, the GI50 is 0.921 µM in the assay with SW-620 colon; 5.68 µM in the assay with HOP-92 NSCLC; 4.51 µM in the assay on NCI-H23 lung; 8.8 µM in the assay with SK-MEL-28 melanoma; 8.65 µM in the assay on EKVX NSCLC; 0.612 µM in the assay with MCF7 breast. In addition, the GI50 is 2.42 µM with M14 melanoma, 1.9 µM in the assay with SF-295 CNS, 5.41 µM with MDA-MB-231 breast and 3.77 µM in the assay on HL-60(TB) leukemia. In addition, the TGI in the assay with SW-620 colon is above 60.1 µM; in the assay with HOP-92 NSCLC, 28.9 µM; in the assay on NCI-H23 lung it was above 88.5 µM; in the assay on SK-MEL-28 melanoma it was above 78.2 µM; in the assay on EKVX NSCLC, above 100 µM; in the assay with MCF7 breast, above 76 µM. For the same molecule, the TGI in the assay with M14 melanoma is above 64.9 µM; in the assay with SF-295 CNS, 16.9 µM; in the assay with MDA-MB-231 breast, above 100 µM; in the assay on HL-60(TB) leukemia it was above 31.4 µM.
